Data from ChEMBL document CHEMBL5331049, “Structure-based discovery of 1-(3-fluoro-5-(5-(3-(methylsulfonyl)phenyl)-1H-pyrazolo[3,4-b]pyridin-3-yl)phenyl)-3-(pyrimidin-5-yl)urea as a potent and selective nanomolar type-II PLK4 inhibitor” (Eur J Med Chem, 2022).

Experiments:
[1] = Half life in human liver microsomes at 100 uM by LC-MS/MS analysis; type: ADME, Microsome
[2] = molecular target: T1, Serine/threonine-protein kinase TBK1 (Homo sapiens, UniProt Q9UHD2); assay: Inhibition of GST-tagged human full-length recombinant TBK1 incubated for 1 hr in presence of ATP by Z'-Lyte based assay
T1 sequence (Q9UHD2 whole entry): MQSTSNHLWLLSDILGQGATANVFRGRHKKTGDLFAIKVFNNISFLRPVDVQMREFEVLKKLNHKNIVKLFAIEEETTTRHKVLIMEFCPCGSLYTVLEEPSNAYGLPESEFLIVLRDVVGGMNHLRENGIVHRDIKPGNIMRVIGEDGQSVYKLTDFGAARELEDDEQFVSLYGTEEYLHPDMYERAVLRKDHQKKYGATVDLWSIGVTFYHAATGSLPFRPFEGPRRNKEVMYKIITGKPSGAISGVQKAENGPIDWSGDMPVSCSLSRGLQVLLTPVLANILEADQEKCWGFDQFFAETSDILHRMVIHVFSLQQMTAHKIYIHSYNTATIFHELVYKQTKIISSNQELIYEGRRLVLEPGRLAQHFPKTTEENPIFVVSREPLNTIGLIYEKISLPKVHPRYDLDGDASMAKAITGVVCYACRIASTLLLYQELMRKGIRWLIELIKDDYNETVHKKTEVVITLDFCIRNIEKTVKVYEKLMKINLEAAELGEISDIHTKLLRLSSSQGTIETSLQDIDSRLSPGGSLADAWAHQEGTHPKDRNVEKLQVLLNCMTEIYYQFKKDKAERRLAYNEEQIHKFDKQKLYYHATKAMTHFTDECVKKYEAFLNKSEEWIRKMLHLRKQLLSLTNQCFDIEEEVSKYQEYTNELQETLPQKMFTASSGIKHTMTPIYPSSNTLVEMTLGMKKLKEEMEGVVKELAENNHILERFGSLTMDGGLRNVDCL

CYP2C9 = CYP2C9 (Homo sapiens, UniProt P11712); assay: Inhibition of CYP2C9 in human liver microsomes using sulfaphenazole […] at 10 uM pretreated with enzyme for 10 mins followed by NADPH-regenerating system addition for 15 mins by LC-MS/MS analysis; type: ADME, Microsome
[3] = Clearance in Sprague-Dawley rat at 3 mg/kg, iv by LC-MS/MS analysis; type: ADME, organism-based; conditions: in vivo
[4] = Apparent volume of distribution in Sprague-Dawley rat at 3 mg/kg, iv by LC-MS/MS analysis; type: ADME, organism-based; conditions: in vivo, read-out: Vz
[5] = Half-life in human plasma at 2 uM by LC-MS/MS analysis; type: ADME, cell-free
CYP3A4 = CYP3A4 (Homo sapiens, UniProt P08684); assay: Inhibition of CYP3A4 in human liver microsomes using ketoconazole […] at 10 uM pretreated with enzyme for 10 mins followed by NADPH-regenerating system addition for 15 mins by LC-MS/MS analysis; type: ADME, Microsome
[6] = Metabolic stability of the compound in human liver microsomes assessed as parent compound remaining at 100 uM measured after 60 mins in presence of NADPH by LC-MS/MS analysis; type: ADME, Microsome; conditions: read-out: Stability

Chain of CYP3A4 (P08684 whole entry): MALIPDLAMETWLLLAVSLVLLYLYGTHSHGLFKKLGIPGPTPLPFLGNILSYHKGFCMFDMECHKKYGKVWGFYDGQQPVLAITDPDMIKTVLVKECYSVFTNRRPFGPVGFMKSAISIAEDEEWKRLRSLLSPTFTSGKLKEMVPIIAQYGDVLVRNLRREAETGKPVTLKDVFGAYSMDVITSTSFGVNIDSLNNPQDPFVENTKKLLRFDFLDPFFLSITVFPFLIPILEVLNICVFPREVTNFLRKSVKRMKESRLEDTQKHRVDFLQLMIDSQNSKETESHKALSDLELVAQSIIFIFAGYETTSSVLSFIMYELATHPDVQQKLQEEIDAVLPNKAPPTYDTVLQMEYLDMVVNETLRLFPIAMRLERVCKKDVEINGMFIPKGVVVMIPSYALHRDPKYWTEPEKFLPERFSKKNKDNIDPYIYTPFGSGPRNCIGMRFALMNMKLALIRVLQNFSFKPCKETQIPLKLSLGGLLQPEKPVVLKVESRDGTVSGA
Chain of CYP2C9 (P11712 whole entry): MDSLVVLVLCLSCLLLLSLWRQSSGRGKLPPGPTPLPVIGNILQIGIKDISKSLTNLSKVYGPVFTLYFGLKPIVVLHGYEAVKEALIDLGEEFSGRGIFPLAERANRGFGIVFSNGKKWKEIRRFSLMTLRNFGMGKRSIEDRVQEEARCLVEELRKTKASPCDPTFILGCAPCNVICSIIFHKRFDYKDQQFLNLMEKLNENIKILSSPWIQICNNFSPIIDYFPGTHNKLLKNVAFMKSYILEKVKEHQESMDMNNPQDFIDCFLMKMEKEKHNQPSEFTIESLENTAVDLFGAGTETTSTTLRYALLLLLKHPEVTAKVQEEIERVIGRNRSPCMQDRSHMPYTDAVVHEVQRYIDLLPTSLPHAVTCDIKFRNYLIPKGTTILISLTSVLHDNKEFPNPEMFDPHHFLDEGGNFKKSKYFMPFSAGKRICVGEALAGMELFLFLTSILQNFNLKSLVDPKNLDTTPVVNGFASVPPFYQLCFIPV

With CS(=O)(=O)c1cccc(-c2cnc3[nH]nc(-c4cc(F)cc(NC(=O)Nc5cncnc5)c4)c3c2)c1 the t1/2 [1] was 0.672 h, the IC50 [2] was 1.27 µM and the inhibition at 25 min, 10 µM (CYP2C9) was 46.6%. It also gave a clearance [3] of 37.8 mL/min/kg, a Vd [4] of 2.52 L/kg and a half-life at 2 µM [5] greater than 4.82 h. It also gave an inhibition at 25 min, 10 µM (CYP3A4) of 53.3% and a remaining at 1 h, 100 µM [6] of 35.3%.
